Values of other authors, collected in patent US8377979B2, “Pharmaceutical formulation containing phenytoin sodium and magnesium stearate” (Taro Pharmaceuticals North America, Inc., priority 2005, dated 2013).

Experiments:
[1] = man, oral administration
[2] = gastrointestinal pH range of 1 to 8

plasma half-life, average [1]: 22 h | solubility [2]: practically insoluble
Structure (SMILES): O=C1NC(=O)C(c2ccccc2)(c2ccccc2)N1 [phenytoin, 5,5-diphenyl-2,4-imidazolidinedione]
